# Source: publication PMC5252617 (Pharmaceutical research, 2012)
# Read-outs that look alike come from different tables or passages of the source.
# Target: T1, human apical sodium-dependent bile acid transporter (hASBT) (Homo sapiens, UniProt Q12908)
# T1 sequence (Q12908 1-348): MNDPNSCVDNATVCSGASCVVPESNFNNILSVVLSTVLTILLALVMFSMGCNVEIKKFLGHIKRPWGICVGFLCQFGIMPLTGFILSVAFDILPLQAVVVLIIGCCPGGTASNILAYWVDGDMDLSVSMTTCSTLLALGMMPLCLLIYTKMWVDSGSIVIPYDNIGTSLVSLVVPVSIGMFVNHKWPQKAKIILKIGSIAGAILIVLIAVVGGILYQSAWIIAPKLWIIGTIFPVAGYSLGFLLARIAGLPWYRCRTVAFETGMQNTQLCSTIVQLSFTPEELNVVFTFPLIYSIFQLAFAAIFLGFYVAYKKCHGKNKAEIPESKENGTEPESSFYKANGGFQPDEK
# Assay: time-dependent inactivation of [3H]-TCA uptake after pre-incubation, hASBT-MDCK
# Format: cell-based
SMILES,KI (inactivation) (read-out: 3β-Cl-CDCA),KI (inactivation) (read-out: 7α-Ms-CDCA)
"C[C@H](CCC(=O)O)[C@H]1CC[C@H]2[C@@H]3[C@H](O)C[C@@H]4C[C@@H](Cl)CC[C@]4(C)[C@H]3CC[C@]12C [3β-Cl-CDCA, 3β-chloro-7α-hydroxy-5β-cholan-24-oic acid]",810 ± 190 nM,
"C[C@H](CCC(=O)O)[C@H]1CC[C@H]2[C@@H]3[C@H](OS(C)(=O)=O)C[C@@H]4C[C@H](O)CC[C@]4(C)[C@H]3CC[C@]12C [7α-Ms-CDCA, 3α-hydroxy-7α-mesyloxy-5β-cholan-24-oic acid]",,1190 ± 60 nM
